A short description of series [1]: Solubility observed in the Vero cytotoxicity assay. Conditions: at 50 μM, Vero cytotoxicity assay medium. In kind it is physicochemical. The method, then:
Vero cells are well established model to test cytotoxicity in vitro because it is an aneuploid and a continuous cell linage. […] Compound 3j was not soluble at 50 μM which made not possible to calculate its IC50.

Series [2] concerns L-proline transporter. Kind of series: L-Proline transport competition assay in T. cruzi epimastigotes. In kind it is cell-based, Trypanosoma cruzi. Conditions: 0.31 mM L-proline (Km), 3.1 mM analog, 30 s. The procedure: Parasites in exponential growth phase were washed three times by centrifugation and resuspended in phosphate buffered saline (PBS), pH 7.4. Cells were counted in a Neubauer chamber, adjusted with the same buffer to a final density of 200 × 10^6 cells/mL and distributed in aliquots of 100 μL (containing 20 × 10^6 cells each). Transport assays were initiated by the addition to the assay tubes of 100 μL of the desired dilution of L-proline in PBS in the presence of […] of L-[3H] proline. Unless otherwise specified, V0 was measured at 28 °C for 30 s by incorporation of 0.75 and 3 mM L-proline traced with 1 μCi of U-^14C-L-Pro (Perkin Elmer). In all cases, proline transport was stopped by addition of […] of cold 50 mM proline in PBS (pH 7.4), and rapid washing by centrifugation at 10,000x g for 2 min. Background values in each experiment were measured by simultaneous addition of radiolabeled L-proline and stop solution as previously described (Silber et al., [2002]). For the competition assays, the transport experiments were performed as described above using the L-Pro concentration corresponding to the Km (0.31 mM). Those conditions were chosen considering an inhibitory activity by structurally related compounds should be competitive, and so, should be evidenced by a change in the […] at L-Pro concentrations close to the Km. Non-competitive inhibitors, if any, should diminish Vmax, which is measured at 10 x Km L-Pro (3.1 mM) (Silber et al., [2002]). […] The analogs were assayed on T. cruzi epimastigotes incubated with proline at the transporter Km concentration (0.31 mM), and the analogs were assayed at concentration 10-fold higher (3.1 mM). […] The oleyl derivate (3k), with an unsaturated fatty tail, has a similar IC50 on T. cruzi epimastigotes compared to the cetyl analog (3j) showing no inhibition in terms of proline uptake (Table 2).  Figure 4 Proline uptake assay. Pro control = Proline control, Pro comp = L-Proline as competitor. 3i-k and 3n = proline level incubated (*p < 0.05) with selected analogs. Pro control (0.31 mM L-proline, [^3H] proline, PBS). Pro Comp (3.1 mM L-proline, [^3H] proline, PBS). Compounds 3i-k and 3n (0.31 mM L-proline, 3.1 mM analog 3x, [^3H] proline, PBS). Stop solution: 50 mM L-proline added after 30 s.

For series [3], the system named is T. cruzi epimastigotes (CL strain clone 14). Kind of series: Growth inhibition assay on T. cruzi epimastigotes. In kind it is cell-based, Trypanosoma cruzi. The procedure:
T. cruzi CL strain clone 14 epimastigotes (Brener and […], [1965]) were maintained in the exponential growth phase by subculturing every 48 h in Liver Infusion Tryptose (LIT) medium supplemented with 10% FCS (Vitrocell, Campinas, São Paulo, Brazil) at 28 °C. T. cruzi epimastigotes in the exponential growth phase (5.0-6.0 x 10^7 cells mL^-1) were cultured in fresh LIT medium. The cells were treated with different concentrations of drugs or not treated (negative control). A combination of Rotenone (60 μM) and Antimycin (0.5 μM) was used as a positive control for inhibition as previously described. (Magdaleno et al., [2009]) The cells (2.5 x 10^6 mL^-1) were transferred to 96-well culture plates and incubated at 28 °C. Cell proliferation was quantified by reading the optical density (OD) at 620 nm for 8 days. The OD was converted to cell density values (cells per mL) using a linear regression equation previously obtained under the same conditions. The concentration of compounds that inhibited 50% of parasite proliferation (IC50) was determined during the exponential growth phase (4 days) by fitting the data to a typical sigmoidal dose-response curve using OriginPro8. The compounds were evaluated in quadruplicate in each experiment. The results shown here correspond to three independent experiments. As a cell growth inhibition control, growth curves in which […] were added to the culture medium were run in parallel for all experiments.

Where “and” joins values, the source holds several entries; their conditions need not be identical. Identical values can stand only once.

For `CCCCCCCCCCCCCCCCn1cc(CN2CCC[C@H]2C(=O)OC)nn1` [Compound 3j, Methyl ((1-Hexadecyl-1H-1,2,3-Triazol-4-yl)Methyl)-L-Prolinate], the melting point fell in the range of 60 to 60.9 °C. Moreover, in series [1], the Solubility result was “not soluble”. In series [2], the “% of Proline inh.” value was 20% and 18^# %. In series [3] (T. cruzi epimastigotes, IC50 relative to T4C (890 μM)), the “Times more active than T4C” value turned out to be 36. Besides, the IC50 in series [3] (Trypanosoma cruzi, epimastigotes, unit given as mM, read-out: T. cruzi epimastigotes IC50 (as restated in the discussion)) is 0.0245 mM.

In general, melting point refers to the temperature of the solid-liquid transition. What is called IC50 is the concentration needed to halve the response being measured.

The record behind these values is PMC7477874, “Targeting L-Proline Uptake as New Strategy for Anti-chagas Drug Development” (Frontiers in Chemistry, 2020).
